These are literature values, as cited in publication PMC9698773, “Design, Synthesis, Molecular Modeling, and Anticancer Evaluation of New VEGFR-2 Inhibitors Based on the Indolin-2-One Scaffold” (Pharmaceuticals, 2022).

This data set concerns HepG2 cells. More on the design: method as in PMID 29901131. The note with it: HepG2 liver cancer cells; cited from earlier work.

The structures appear in SMILES notation.

For the compound `CNC(=O)c1cc(Oc2ccc(NC(=O)Nc3ccc(Cl)c(C(F)(F)F)c3)cc2)ccn1` [Sorafenib], the “phase of cell cycle arrest” value was “S phase and G2/M phase”.
